These are literature values, as cited in patent US20070148722A1, “Method for determining the concentration of thrombin inhibitors” (priority 1999, published 2007).

The target in the series is meizothrombin (Homo sapiens, UniProt P00734). The following applies: theoretical background statement; affinity to atypical intermediate meizothrombin.

pKi: −log10 of the molar value.

The term pKi denotes −log10 of the Ki, conventionally taken in molar units. In the case of hirudin, the pKi was below 10.00.
